Results published in PubChem BioAssay (NCI).
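Test compounds were applied to cells in 96-well plates for 48 hours at 5 doses. The concentration for 50% growth inhibition is given as GI50. TGI marks complete inhibition of growth.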

Key:
Assay in all cases: DTP human tumour cell line panel, 48 h
CAKI-1 renal = system: CAKI-1 renal
LOX IMVI melanoma = system: LOX IMVI melanoma
MALME-3M melanoma = system: MALME-3M melanoma
NCI-H522 lung = system: NCI-H522 lung
SF-295 CNS = system: SF-295 CNS
SF-539 CNS = system: SF-539 CNS
SK-MEL-5 melanoma = system: SK-MEL-5 melanoma
SNB-75 CNS = system: SNB-75 CNS
SW-620 colon = system: SW-620 colon
UO-31 renal = system: UO-31 renal

| Structure (SMILES) | GI50 (CAKI-1 renal) | TGI (CAKI-1 renal) | GI50 (LOX IMVI melanoma) | TGI (LOX IMVI melanoma) | GI50 (MALME-3M melanoma) | TGI (MALME-3M melanoma) | GI50 (NCI-H522 lung) | TGI (NCI-H522 lung) | GI50 (SF-295 CNS) | TGI (SF-295 CNS) | GI50 (SF-539 CNS) | TGI (SF-539 CNS) | GI50 (SK-MEL-5 melanoma) | TGI (SK-MEL-5 melanoma) | GI50 (SNB-75 CNS) | TGI (SNB-75 CNS) | GI50 (SW-620 colon) | TGI (SW-620 colon) | GI50 (UO-31 renal) | TGI (UO-31 renal) |
| --- | --- | --- | --- | --- | --- | --- | --- | --- | --- | --- | --- | --- | --- | --- | --- | --- | --- | --- | --- | --- |
| CC(C)OC(=O)c1ccc2[nH]c(O)c(C(=Nc3ccc(N(C)C(=O)CN4CCN(C)CC4)cc3)c3ccccc3)c2c1 | 95.2 nM | 1.12 µM | 298 nM | 1.43 µM | 859 nM | 2.29 µM | 1220 nM | 3.02 µM | 1190 nM | 2.47 µM | 0.318 µM | 1.16 µM | 541 nM | 1.8 µM | 0.101 µM | 1.54 µM | 369 nM | 1.62 µM | 278 nM | 1.31 µM |
| COc1ccc2c(c1)C(=O)c1c-2n(CCCN2CCOCC2)c(=O)c2ccccc12 | 1790 nM | 8.07 µM | 1450 nM | 3.36 µM | 3440 nM | 18.7 µM | 1520 nM | 13.9 µM | 1350 nM | 9.71 µM | 2.17 µM | 5.33 µM | 1370 nM | 2.68 µM | 3.86 µM | 23.1 µM | 2310 nM | > 100 µM | 799 nM | 3.26 µM |
| O=C(O)c1c[nH]cc1C(=O)O |  | > 100 µM |  | > 100 µM |  | > 100 µM |  | > 100 µM |  | > 100 µM |  | > 100 µM |  | > 100 µM |  | > 100 µM |  | > 100 µM |  | > 100 µM |
| Clc1ccc(CN2COc3c(cc(Cl)c4cccnc34)C2)cc1 |  | 12.6 µM |  | 2.97 µM |  | 5.74 µM |  | 3.12 µM |  | 7.1 µM |  | 4.92 µM |  | 8.92 µM |  | 11 µM |  | 11 µM |  | 5.51 µM |
| CCSc1nc(COC(=O)NC)c(COC(=O)NC)n1C |  | > 78.2 µM |  | > 100 µM |  | > 100 µM |  | > 95.4 µM |  | > 100 µM |  | > 100 µM |  | > 100 µM |  | > 100 µM |  | > 100 µM |  | > 100 µM |
| COc1ccc2c(c1)nc(N)c1c3cccnc3cn21 | 40.7 nM | 16.3 µM | 71.3 nM | 18.7 µM | 153 nM | 25.7 µM | 41.1 nM | 3.45 µM | 36.5 nM | 1.13 µM | 0.0432 µM | 1.09 µM | 32.2 nM | 0.836 µM | 0.06 µM | > 100 µM | 37.3 nM | 14.5 µM | 77.6 nM | 17.9 µM |
| CCOC(=O)N1CCN(S(=O)(=O)c2oc(-c3ccc(Cl)cc3)nc2C#N)CC1 | 1750 nM | 3.14 µM | 573 nM | 2.02 µM | 1670 nM | 3.09 µM | 956 nM | 3.07 µM | 28200 nM | > 100 µM | 3.34 µM | 10.5 µM | 2510 nM | 6.46 µM | 11.4 µM | > 100 µM | 1690 nM | 3.75 µM | 1540 nM | 2.88 µM |
| CCO[C@@H]1C2C=CC(C2)[C@H]1[N+](=O)[O-] (stereo not given in full) |  | > 100 µM |  | > 100 µM |  | > 100 µM |  | > 100 µM |  | > 100 µM |  | > 100 µM |  | > 100 µM |  | > 100 µM |  | > 100 µM |  | > 100 µM |
| COC(=O)C(Cc1nc2ccc(Cl)cc2[nH]c1=O)C(=O)C(=O)Nc1ccccc1[N+](=O)[O-] (stereo not given) |  | > 100 µM |  | > 100 µM |  | > 100 µM |  | > 100 µM |  | > 100 µM |  | > 100 µM |  | > 100 µM |  | > 100 µM |  | > 100 µM |  | > 100 µM |
| C=C[C@]1(C)C=C2C(=O)[C@@]3(O)OC[C@@]4(CCCC(C)(C)C43O)C2(O)C(O)C1 (stereo not given in full) | 2380 nM | 7.71 µM | 1960 nM | 6.48 µM | 1360 nM | 3.02 µM | 631 nM | 2.84 µM | 21600 nM | > 70.5 µM | 5.15 µM | 15.4 µM | 14500 nM | 27.8 µM | 3.51 µM | 14 µM | 827 nM | 2.31 µM | 1340 nM | 3 µM |
| CCOC(=O)c1c(C)n(Cc2ccc(Cl)cc2Cl)c2c1cc1oc(=O)c(=O)n3c(Cc4ccccc4)nc2c13 | 2690 nM | 9.36 µM | 1830 nM | 3.38 µM | 5300 nM | 12.9 µM | 6100 nM | 25.5 µM | 2320 nM | 10.9 µM | 8.44 µM | 20.7 µM | 1970 nM | 3.54 µM | 10.1 µM | 27.7 µM | 1950 nM | 4.3 µM | 3770 nM | 15 µM |
| O=C(NN1C(=O)CSC1c1ccc(Cl)cc1)c1[nH]c2ccc(F)cc2c1-c1ccccc1 (stereo not given) | 5070 nM | 17.2 µM | 2650 nM | 7.18 µM | 6030 nM | > 42.8 µM | 4340 nM | 14.8 µM | 2860 nM | 11.4 µM | 6.08 µM | 13.5 µM | 5920 nM | 16 µM | 5.04 µM | 21 µM | 2980 nM | 8.92 µM | 4070 nM | 13.7 µM |
| O=C(O)CCC1CCc2cccc3occ1c23 (stereo not given) |  | > 100 µM |  | > 100 µM |  | > 100 µM |  | > 100 µM |  | > 100 µM |  | > 100 µM |  | > 100 µM |  | > 100 µM |  | > 100 µM |  | > 100 µM |
| Cc1cccc(C(C)(C)C)c1NC(=O)C(=O)C(c1cnc2ccccc2n1)[N+](=O)[O-] (stereo not given) |  | > 100 µM |  | > 100 µM |  | > 100 µM |  | > 100 µM |  | > 100 µM |  | > 100 µM |  | > 100 µM |  | > 100 µM |  | > 100 µM |  | > 100 µM |
